{
  "source": "patent US20080019910A1",
  "about": "“Cancer Treatment and Cancer Treatment Efficacy Prediction by Blocking and Detecting Protease Inhibitors” (priority 2004, published 2008);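 for day of WBC nadir: nude META/Bom nu/nu mice of both sexes, 24-30 g, blood taken for hematology on day 3 (anticipated WBC nadir) and on day 5 after dosing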;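 for difference in WBC response between PAI-1 +/+ and PAI-1 −/− mice: nude META/Bom nu/nu mice of both sexes, 24-30 g, blood taken for hematology on day 3 (anticipated WBC nadir) and on day 5 after dosing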;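 for effect on white blood cell count (WBC): nude META/Bom nu/nu mice of both sexes, 24-30 g, blood taken for hematology on day 3 (anticipated WBC nadir) and on day 5 after dosing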;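 for weight loss in treated mice: nude META/Bom nu/nu mice of both sexes, 24-30 g, blood taken for hematology on day 3 (anticipated WBC nadir) and on day 5 after dosing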",
  "key": {"[1]": {"tested_on": "wild-type and PAI-1 gene-deficient fibrosarcoma cell lines", "test": "Clonogenic assay (colony formation in soft agar)", "type": "cell-based, mouse", "conditions": "PAI-1−/− versus wild type fibrosarcoma cells", "experimental": "The cell lines described in Example 1 were used. The cells were in passage 35 (wild-type cells) and passage 50 (PAI-1 gene deficient cells). […] Gentle aspiration was repeated using a 1 ml syringe to achieve single cell suspension. 1 ml was then plated in triplicate in Petri dishes upon a feeder layer of SRBC (see separate paragraph for preparation of these). When the agar had solidified, 1 ml of media was added on top. 18-24 dishes were placed on plastic trays and two Petri dishes containing water were placed on each tray for conditioning. […] Colonies (>64 cells) were counted after 3 weeks. The experimental drugs were dissolved in media×300 the final concentration. […] Viable cells were counted after 8 minutes."}, "[2]": {"tested_on": "PAI-1+/+ fibrosarcoma cells", "test": "LDH release cytotoxicity assay", "type": "cell-based, mouse", "conditions": "PAI-1+/+ cells", "from_the_text": "(§1) The damage of the plasma membrane is classically evaluated as a parameter for cell death. In vivo the plasma membrane of apoptotic cells persists until the cell is phagocytised. In contrast, necrotic cell death results in leakage of cytoplasm to the extracellular environment, which leads to an inflammatory response. Under cell culture conditions, cells that have been subjected to an apoptotic stimulus will initially die by apoptosis, but later shift into secondary necrosis due to lack of phagocytosis in the cell culture. Cytotoxicity or cell lysis can be measured by determining the release of lactate dehydrogenase (LDH) in the culture supernatant. For this purpose the “Cytotoxicity detection kit” (Roche, Mannheim, Germany) was employed.\n(§2) PAI-1−/− and PAI-1+/+ fibrosarcoma cells were seeded in a 96-well microtiter plate (2500 cells/well). Fifty μl of culture supernatant (total: 200 μl) is transferred to a new 96-well microtiter plate and mixed with 50 μl of a substrate mix. The remaining supernatant is discarded, and the remaining intact cells are lysed by addition of 200 μl of lysis buffer (1% Triton-X100 in CM). After 30 min lysis at 37° C., 50 μl of lysate is transferred to a new 96-well microtiter plate and mixed with 50 μl of a substrate mix. The cell culture supernatant and lysate are incubated for 10 min with the substrate mix protected from light. The absorbance is measured on a spectrophotometer at λ1=490 nm and reference λ2=650 nm. The amount of released LDH in % is related to total amount: [formula] Results"}, "[3]": {"tested_on": "PAI-1−/− fibrosarcoma cells", "test": "LDH release cytotoxicity assay", "type": "cell-based, mouse", "conditions": "for LDH release (% of total activity): PAI-1−/− cells; for sensitivity to treatment (LDH release): PAI-1−/− compared with PAI-1+/+ fibrosarcoma cells; for cell lysis (LDH release): both PAI-1−/− and PAI-1+/+ fibrosarcoma cells", "from_the_text": "as §1, §2"}, "[4]": {"tested_on": "PAI-1 transfected PAI-1−/− fibrosarcoma cells", "test": "LDH release after reintroduction of PAI-1 expression", "type": "cell-based, mouse", "conditions": "PAI-1−/−(PAI-1 pool) versus PAI-1−/− (vector pool) and parental PAI-1−/− cells", "experimental": "Transfection of PAI-1−/− fibrosarcoma cells was performed by the use of Lipofectamine 2000 ([…]) according to the manufactures instructions employing 2×10^5 cells. After 2 days the cells were seed in tissue culture flasks and 100 μg/ml Hygromycin was added to the medium to select for transfected cells in pooled population. Experiments were performed 2 months after transfection. The sensitivity to apoptosis was measured by treating the cells with etoposide and TNF-α and detecting the LDH release as described in Example 4."}, "[5]": {"tested_on": "TIMP-1−/− and TIMP-1+/+ fibrosarcoma cells", "test": "LDH release cytotoxicity assay", "type": "cell-based, mouse", "from_the_text": "as §1\nTIMP-1−/− and TIMP-1+/+ fibrosarcoma cells (see above method for establishment of fibrosarcoma cells from mice) were seeded in a 96-well microtiter plate (2500 cells/well). After 24 hours, cells are treated with etoposide for 24 h. Fifty μl of culture supernatant (total: 200 μl) is transferred to a new 96-well microtiter plate and mixed with 50 μl of a substrate mix. The remaining supernatant is discarded, and the remaining intact cells are lysed by addition of 200 μl of lysis buffer (1% Triton-X100 in CM). […] The absorbance is measured on a spectrophotometer at λ1=490 nm and reference λ2=650 nm. […]"}, "[6]": {"tested_on": "TIMP-1 +/+ and TIMP-1 −/− fibrosarcoma cell lines", "test": "DNA-histone complex assay", "type": "cell-based, mouse"}, "[7]": {"test": "In vivo toxicity (weight loss, white blood cells) in PAI-1 +/+ and PAI-1 −/− mice", "conditions": "75 mg/kg i.p."}},
  "data": [
    {"molecule": "Nc1ccn([C@@H]2O[C@H](CO)[C@@H](O)[C@@H]2O)c(=O)n1", "note": "[ARA-C]", "values": [
      {"measurement": "sensitivity in clonogenic assay (colony formation)", "setting": "[1]", "value": "significantly more sensitive"}
    ]},
    {"molecule": "COc1cccc2c1C(=O)c1c(O)c3c(c(O)c1C2=O)C[C@@](O)(C(=O)CO)C[C@@H]3O[C@H]1C[C@H](N)[C@H](O)[C@H](C)O1", "note": "[doxorubicin]", "values": [
      {"measurement": "sensitivity in clonogenic assay (colony formation)", "setting": "[1]", "value": "significantly more sensitive"}
    ]},
    {"molecule": "TNF-α", "values": [
      {"measurement": "LDH release (% of total activity)", "setting": "[2]; 2.5 ng/ml TNF-α, 24 h", "value": 7.3, "unit": "%"},
      {"measurement": "LDH release (% of total activity)", "setting": "[3]; 2.5 ng/ml TNF-α, 24 h", "value": 46.3, "unit": "%"},
      {"measurement": "sensitivity to treatment (LDH release)", "setting": "[3]", "value": "significantly more sensitive"},
      {"measurement": "cell lysis (LDH release)", "setting": "[3]", "value": "dose-dependent cell lysis"},
      {"measurement": "resistance to induced cell death (LDH release)", "setting": "[4]", "value": "significantly more resistant"}
    ]},
    {"molecule": "CC[C@]1(O)C[C@H]2CN(CCc3c([nH]c4ccccc34)[C@@](C(=O)OC)(c3cc4c(cc3OC)N(C=O)[C@H]3[C@@](O)(C(=O)OC)[C@H](OC(C)=O)[C@]5(CC)C=CCN6CC[C@]43[C@@H]65)C2)C1", "note": "[vincristine]", "values": [
      {"measurement": "sensitivity in clonogenic assay (colony formation)", "setting": "[1]", "value": "significantly more sensitive"}
    ]},
    {"molecule": "COc1cc([C@@H]2c3cc4c(cc3[C@@H](O[C@@H]3O[C@@H]5CO[C@@H](C)O[C@H]5[C@H](O)[C@H]3O)[C@H]3COC(=O)[C@H]23)OCO4)cc(OC)c1O", "note": "[etoposide]", "values": [
      {"measurement": "sensitivity in clonogenic assay (colony formation)", "setting": "[1]", "value": "significantly more sensitive"},
      {"measurement": "LDH release (% of total activity)", "setting": "[2]; 1.25 μM etoposide, 48 h", "value": 1, "unit": "%"},
      {"measurement": "LDH release (% of total activity)", "setting": "[3]; 1.25 μM etoposide, 48 h", "value": 41.10, "unit": "%"},
      {"measurement": "sensitivity to treatment (LDH release)", "setting": "[3]", "value": "significantly more sensitive"},
      {"measurement": "cell lysis (LDH release)", "setting": "[3]", "value": "dose-dependent cell lysis"},
      {"measurement": "sensitivity to treatment (LDH release)", "setting": "[5]; TIMP-1−/− compared with TIMP-1+/+ fibrosarcoma cells", "value": "significantly more sensitive"},
      {"measurement": "cell lysis (LDH release)", "setting": "[5]; both TIMP-1−/− and TIMP-1+/+ fibrosarcoma cells", "value": "dose-dependent cell lysis"},
      {"measurement": "resistance to induced cell death (LDH release)", "setting": "[4]", "value": "significantly more resistant"},
      {"measurement": "apoptosis induction", "setting": "[6]", "value": "induced apoptosis"},
      {"measurement": "day of WBC nadir", "setting": "[7]; both genotypes", "value": 3, "unit": "days"},
      {"measurement": "effect on white blood cell count (WBC)", "setting": "[7]; both genotypes, p=0.0003", "value": "suppresses white blood cell count"},
      {"measurement": "difference in WBC response between PAI-1 +/+ and PAI-1 −/− mice", "setting": "[7]; p=0.99", "value": "no difference"},
      {"measurement": "weight loss in treated mice", "setting": "[7]; treated versus untreated, p<0.0001", "value": "significant loss of weight"},
      {"measurement": "Drug induced effect on weight loss (weight, initial = 100)", "setting": "[7]; PAI-1 +/+ female mice, 22.0 hours", "value": 101.2},
      {"measurement": "Drug induced effect on weight loss (weight, initial = 100)", "setting": "[7]; PAI-1 +/+ female mice, 44.5 hours", "value": 98.3},
      {"measurement": "Drug induced effect on weight loss (weight, initial = 100)", "setting": "[7]; PAI-1 +/+ female mice, 67.0 hours", "value": 98.2},
      {"measurement": "Drug induced effect on weight loss (weight, initial = 100)", "setting": "[7]; PAI-1 +/+ female mice, 93.5 hours", "value": 98.4},
      {"measurement": "Drug induced effect on weight loss (weight, initial = 100)", "setting": "[7]; PAI-1 +/+ female mice, 120.0 hours", "value": 97.7},
      {"measurement": "Drug induced effect on weight loss (weight, initial = 100)", "setting": "[7]; PAI-1 +/+ male mice, 22.0 hours", "value": 97.6},
      {"measurement": "Drug induced effect on weight loss (weight, initial = 100)", "setting": "[7]; PAI-1 +/+ male mice, 44.5 hours", "value": 94.9},
      {"measurement": "Drug induced effect on weight loss (weight, initial = 100)", "setting": "[7]; PAI-1 +/+ male mice, 67.0 hours", "value": 92.9},
      {"measurement": "Drug induced effect on weight loss (weight, initial = 100)", "setting": "[7]; PAI-1 +/+ male mice, 93.5 hours", "value": 91.0},
      {"measurement": "Drug induced effect on weight loss (weight, initial = 100)", "setting": "[7]; PAI-1 +/+ male mice, 120.0 hours", "value": 91.8},
      {"measurement": "Drug induced effect on weight loss (weight, initial = 100)", "setting": "[7]; PAI-1 −/− female mice, 22.0 hours", "value": 99.9},
      {"measurement": "Drug induced effect on weight loss (weight, initial = 100)", "setting": "[7]; PAI-1 −/− female mice, 44.5 hours", "value": 99.1},
      {"measurement": "Drug induced effect on weight loss (weight, initial = 100)", "setting": "[7]; PAI-1 −/− female mice, 67.0 hours", "value": 99.6},
      {"measurement": "Drug induced effect on weight loss (weight, initial = 100)", "setting": "[7]; PAI-1 −/− female mice, 93.5 hours", "value": 98.7},
      {"measurement": "Drug induced effect on weight loss (weight, initial = 100)", "setting": "[7]; PAI-1 −/− female mice, 120.0 hours", "value": 100.3},
      {"measurement": "Drug induced effect on weight loss (weight, initial = 100)", "setting": "[7]; PAI-1 −/− male mice, 22.0 hours", "value": 99.1},
      {"measurement": "Drug induced effect on weight loss (weight, initial = 100)", "setting": "[7]; PAI-1 −/− male mice, 44.5 hours", "value": 96.3},
      {"measurement": "Drug induced effect on weight loss (weight, initial = 100)", "setting": "[7]; PAI-1 −/− male mice, 67.0 hours", "value": 96.4},
      {"measurement": "Drug induced effect on weight loss (weight, initial = 100)", "setting": "[7]; PAI-1 −/− male mice, 93.5 hours", "value": 95.6},
      {"measurement": "Drug induced effect on weight loss (weight, initial = 100)", "setting": "[7]; PAI-1 −/− male mice, 120.0 hours", "value": 97.0}
    ]},
    {"molecule": "N.N.[Cl][Pt][Cl]", "note": "[cisplatin]", "values": [
      {"measurement": "sensitivity in clonogenic assay (colony formation)", "setting": "[1]", "value": "significantly more sensitive"}
    ]}
  ]
}
